Literature values in patent US20230233646A1, “METHOD OF TREATMENT OF CONGENITAL MYASTHENIC SYNDROME USING DOK7 GENE OR POLYPEPTIDE” (priority 2020, published 2023).

Test system: peripheral cholinesterase enzyme

CN(C)C(=O)Oc1ccc[n+](C)c1 [Pyridostigmine]
fraction of peripheral cholinesterase enzyme carbamylated: about 30%
